# Experiments:
# [1] = tested on: E. coli ARL1; assay: Detection of mercury using bioluminescence, strain ARL1; type: cell-based; conditions: 500 μg HgCl2/L
# Method: (§1) Strains ARL1, ARL2, and ARL3 were screened for bioluminescence production in the presence of HgCl2. Each strain was grown in LB medium to an OD546nm of 0.35 at which time 500 μg HgCl2/L was added. Induction of bioluminescence in the presence of mercury was rapid (FIG. 5) with significant light produced in 30 minutes. Strain ARL2 had higher background bioluminescence (˜31,486 cps) in the absence of mercury relative to strain ARL1 and ARL3 (˜13,798 and ˜12,762 respectively). After 20 minutes, strain ARL2 produced approximately twice the amount of bioluminescence ((˜1,791,560 cps) relative to strains ARL1 and ARL3 (˜917.496 and 825,240 cps respectively).
# [2] = tested on: E. coli ARL2; assay: Detection of mercury using bioluminescence, strain ARL2; type: cell-based; conditions: 500 μg HgCl2/L
# Method: as §1
# [3] = tested on: E. coli ARL3; assay: Detection of mercury using bioluminescence, strain ARL3; type: cell-based; conditions: 500 μg HgCl2/L
# Method: as §1
# [4] = tested on: P. fluorescens 5RL; assay: Prototype test strip, naphthalene/salicylate bioreporter; type: cell-based; conditions: 5 ppm naphthalene in mixture with 1 ppm Hg2+ and 10 ppm toluene
# Excerpt: (§2) 1. The bottom layer is absorbent Whatman filter paper.
# (§3) 2. The second layer is an impermeable water barrier. Currently we are using aluminum foil.
# (§4) 4. The fourth layer is the styrene sheet. […] There is one circle for each bioreporter.
# (§5) 5. The last layer is the encapsulated cells.
# (§6) Water will be wicked up the filter paper.
# [5] = tested on: P. fluorescens 5RL (pUTK21); conditions: cited from earlier work
# [6] = tested on: P. putida TVA8; assay: Prototype test strip, toluene bioreporter; type: cell-based; conditions: 10 ppm toluene in mixture
# Excerpt: as §2, §3, §4, §5, §6
# […]. […] […].
# [7] = tested on: P. putida TVA8; conditions: cited from earlier work
# [8] = tested on: P. fluorescens 5RL; conditions: salicylate 10 and 100 ppm, cellulose filter strips, room temperature
# Method: Strips were removed and excess fluid was drained. These filter strips with cells were placed on a second set of strips impregnated with salicylic acid (10 and 100 ppm).
# Briefly, a 100 μl sample of an uninduced culture of Pseudomonas fluorescens 5RL was placed in a sterile petri dish containing LB broth (10 ml) supplemented with tetracycline (14 μg/mI).
# [9] = tested on: E. coli EC100; conditions: cellulose strips
compound,measurement,setting,value
[Cl][Hg][Cl] [HgCl2],time to significant light production,[1],30 min
same,time to significant light production,[2],30 min
same,bioluminescence after 20 minutes,"[2]; LB medium, OD546nm 0.35","~1,791,560 cps"
same,time to significant light production,[3],30 min
same,bioluminescence after 20 minutes,"[3]; LB medium, OD546nm 0.35","~825,240 cps"
c1ccc2ccccc2c1 [Naphthalene],visibility of bioluminescence on test strip,[4],visible to the naked eye
same,Lower Detection Limits,[5],˜50 ppb
same,Response Time,[5],˜1 hour
Cc1ccccc1 [Toluene],visibility of bioluminescence on test strip,[6],only detectable with a photomultiplier
same,Response Time,[7],25 ppm
"O=C([O-])c1ccccc1O.[Na+] [salicylate, sodium salicylate]",time to light visible to the naked eye,[8],less than 60 min
same,time to visible light after contact of test strips with inducer solution,[9],less than one hour

# — US20030108980A1, “Bioluminescent methods for direct visual detection of environmental compounds” (priority 2000, published 2003)
